Source: the NIST ThermoML archive (doi:10.1016/j.jct.2004.07.008)
Numbers after ± are expanded uncertainties.

Columns and labels:
[1] = 100 kPa, Liquid
[2] = xn = mol fraction of the nth substance listed; conditions: 278.15 K; 100 kPa; Liquid; x2 = 0

Row | Compound | mass density ([1]; 278.15 K) [kg/m3] | mass density ([1]; 288.15 K) [kg/m3] | mass density ([1]; 293.15 K) [kg/m3] | mass density ([1]; 298.15 K) [kg/m3] | mass density ([1]; 308.15 K) [kg/m3] | mass density [2] [kg/m3]
1 | CCNCC [diethylamine] | 719.94 ± 1.2 | 709.52 ± 1.2 | 704.59 ± 1.2 | 698.97 ± 1.2 | 688.29 ± 1.3 | 
2 | O [water] + CCNCC |  |  |  |  |  | 999.964 ± 0.25
